Experimental findings from ChEMBL document CHEMBL1142044, “Estrogen receptor ligands. Part 10: Chromanes: old scaffolds for new SERAMs” (Bioorg Med Chem Lett, 2005) are described below.

Structures are written as SMILES.

Assay type in all cases: ADME, organism-based
Data set [1] is described as follows: Bioavailability in rat (female) (dose 1 mg/kg i.v. and 2 mg/kg p.o.). The note with it: in vivo, po.
A short description of data set [2]: Half life in female rat was determined with intravenous dosing at 1 mpk and oral dosing at 2 mpk. Conditions: in vivo.
Data set [3] in a line: Plasma clearance in female rat was determined with intravenous dosing at 1 mpk and oral dosing at 2 mpk. The note with it: 1 mg/kg.

For the compound `C[C@@H]1c2ccc(O)cc2O[C@@H](c2ccc(OCCN3CCCCC3)cc2)[C@H]1c1ccc(O)cc1`, in data set [1], the bioavailability turned out to be 2%. Further, in data set [2], the half-life is 5.9 h. The clearance in data set [3] was determined as 9.5 mL/min/kg.
The matching figures for `C[C@H]1CCN([C@@H](C)COc2ccc([C@@H]3Oc4ccc(O)c(F)c4[C@@H](C)[C@@H]3c3ccc(O)cc3)cc2)C1`: 44%, 6.1 h and 9 mL/min/kg.
In data set [1], `C[C@@H]1c2c(ccc(O)c2F)O[C@@H](c2ccc(OCCN3CCCCC3)cc2)[C@H]1c1ccc(O)cc1` registered a bioavailability of 54%. In addition, in data set [2], the half-life was 11.2 h. Also, the clearance in data set [3] is 16.9 mL/min/kg.
`C[C@@H]1c2c(ccc(O)c2F)O[C@@H](c2ccc(OC[C@H](C)N3CCCC3)cc2)[C@H]1c1ccc(O)cc1` displayed a bioavailability in data set [1] of 31%. Moreover, the half-life in data set [2] was 4.4 h. In addition, the clearance in data set [3] was 42.6 mL/min/kg.
Take `C[C@@H]1c2cc(O)ccc2O[C@@H](c2ccc(OCCN3CCCCC3)cc2)[C@H]1c1ccc(O)cc1`: the bioavailability in data set [1] came to 45%. In addition, the half-life in data set [2] was 8.1 h. The compound also showed a clearance in data set [3] of 7.7 mL/min/kg.
With `C[C@@H]1CCN(CCOc2ccc([C@@H]3Oc4ccc(O)c(F)c4[C@@H](C)[C@@H]3c3ccc(O)cc3)cc2)C1`, the bioavailability in data set [1] is 43%. Moreover, the half-life in data set [2] is 8 h. The clearance in data set [3] came to 17.8 mL/min/kg.
